The values that follow come from article PMC12285270, “An antibiotic-free antimicrobial combination of bacteriocins and a peptidoglycan hydrolase: in vitro and in vivo assessment of its efficacy” (Applied and Environmental Microbiology, 2025).

Ends that are not written are not given here.

Series [1] concerns normal human epidermal keratinocytes. As to conditions: cited from earlier work. The text has this:
(§1) Encouraged by the efficacy of the MP1/Nis/Aur combination in inhibiting S. aureus in the wound, we sought to examine the potential of the antimicrobial combination in treating mastitis, an infection often caused by S. aureus.

Series [2] deals with S. aureus Xen31 isolates Mut1 and Mut2. Briefly: Spot-on-lawn assay on isolates recovered from wounds. The conditions noted are these: for zone of inhibition compared to wild-type strain Xen31: both isolates Mut1 and Mut2, 2 µl of 1 mg/ml nisin A, 0.1 mg/ml MP1 and/or 0.1 mg/ml AuresinePlus spotted. The class given is cell-based. The procedure: Figure S9. Susceptibility of Xen31 mutants recovered from wounded mice. Spot-on-lawn assay using MP1 (M), Nis (N), Aur (A) or the tricomponent combination (MNA) comparing Xen31 WT with two resistant isolates recovered at day 7 PI from the back of wounded mice. Two µl of 1 mg/ml nisin A, 0.1 mg/ml MP1 and/or 0.1 mg/ml AuresinePlus were spotted.

The test system of series [3] is HepG2 and THP-1 cell lines. The conditions noted are these: cited from earlier work.
Description: as §1

A further series has as its system S. aureus Xen31. The conditions noted are these: formulation: 0.1 mg/mL MP1, 5 mg/mL garvicin KS, 5 mg/mL penicillin G in 5% hydropropylcellulose; cited from earlier work. The text has this: (§2) The antimicrobial combinations of MP1, Nis, and AuresinePlus were additionally shown to be effective at eradicating S. aureus biofilms (Fig. 3B and C). This led us to assess the antimicrobial efficacy of the combination in vivo using a murine skin infection model. For infected mice treated with the combination, a reduction in the bioluminescence signal was observed throughout the experiment, except for two mice where a relapse of the infection occurred (see Discussion below, Fig. 4C).

For series [4], the system named is HT29 and Caco-2 cell lines. As to conditions: in vitro; cited from earlier work.
Description: as §1

The next series deals with S. aureus. As to conditions: in vitro; cited from earlier work. The text has this: As individual components, these antimicrobials probably have limited efficacy against S. aureus in wounds. AuresinePlus is an engineered PGH consisting of the catalytic domain of the S. aureus autolysin LytM and the SH3b cell wall-binding domain lysostaph ...
Another series has as its system S. aureus Xen36. The conditions noted are these: cited from earlier work.
Description: as §2

Turning to “Lysostaphin: large (>10 kDa) heat-labile bacteriolysin from S. simulans”, the “IC50 (midpoint cytotoxicity value)” value in series [1] is 16000 µg/mL.

For micrococcin P1 [MP1], the “sensitivity of isolate Mut2” value in series [2] (Mut2, 2 µl of 0.1 mg/ml MP1 spotted) is recorded as “insensitive”. Moreover, the “zone of inhibition compared to wild-type strain Xen31” value in series [2] was “particularly reduced”. For the same substance, the “concentration above which growth is impaired” value in series [3] is “above 0.03 mg/mL”. The “negative effects on the mice” value in the series with S. aureus Xen31 was “no obvious negative effects on the mice”.

With “nisin A (ITSISLCTPGCKTGALMGCNMKTATCHCSIHVSK; also: lantibiotic (lanthionine rings, dehydro residues) not placed; UniProt P13068 24-57, looked up) [lantibiotic bacteriocin; commercial fermentate from Sigma-Aldrich (N5764; 2.5% wt/wt nisin)]”, the “zone of inhibition compared to wild-type strain Xen31” value in series [2] is given as “particularly reduced”. For the same substance, the “IC50 (cytotoxicity)” value in series [4] was 300 to 400 µg/mL. Moreover, the “frequency of spontaneous mutations conferring high levels of nisin tolerance” value in the series with S. aureus was 2 × 10^−7. Also, in the series on S. aureus Xen36, the “effect on wound healing” value is on record as “no negative effects on wound healing”. Moreover, the “reduction in bacterial counts” value in the series on S. aureus Xen36 (skin wounds, nisin concentration comparable to this study) is on record as 2 log.
